From paper PMC10976393 (2024)

Key:
[1] = tested on: ATP Aptamer-FAM (DNA, aptamer) TTCCTGGGGGAGTATTGCGGAGGAAGG; assay: FAM fluorescence increase, single-site fit; conditions: 100 mM KCl; 50 mM Tris pH 7.5; slow annealing with ATP 0-10 μM; 0.50 μM aptamer
[2] = tested on: FAM-Quadruplet G (DNA, aptamer) TTCCTGGGGGGGGGAGTATTGCGGGGAGGGGAAGG; assay: FAM fluorescence increase, single-site fit; conditions: 100 mM KCl; 50 mM Tris pH 7.5; slow annealing with ATP 0-10 μM; 0.50 μM aptamer
[3] = tested on: Quadruplet G (DNA, aptamer) CCTGGGGGGGGGAGTATTGCGGGGAGGGGAAGG; assay: HPLC-ESI-MS; conditions: 1 mM KCl, 100 mM TEAAc (annealed in 50 mM KCl)
[4] = tested on: Scrambled Aptamer (DNA, single strand) GTGCGCGAGTGTGAGCGAGAGTGAG; assay: label-free ThT fluorescence; conditions: 100 mM KCl; 50 mM Tris pH 7.5; ThT present; slow annealing with ATP
[5] = tested on: FAM-Triplet G (DNA, aptamer) TTCCTGGGGGGGAGTATTGCGGGAGGGAAGG; assay: FAM fluorescence increase, single-site fit; conditions: 100 mM KCl; 50 mM Tris pH 7.5; slow annealing with ATP 0-10 μM; 0.50 μM aptamer
[6] = tested on: ATP Aptamer (DNA, aptamer) CCTGGGGGAGTATTGCGGAGGAAGG; assay: HPLC-ESI-MS; conditions: 1 mM KCl, 100 mM TEAAc (annealed in 50 mM KCl)
[7] = tested on: GAT (DNA, single strand) GATAGCGTCACTCGATCT; assay: label-free ThT fluorescence; conditions: 100 mM KCl; 50 mM Tris pH 7.5; ThT present; slow annealing with ATP
[8] = tested on: FAM-ATP Aptamer (DNA, aptamer) TTCCTGGGGGAGTATTGCGGAGGAAGG; assay: FAM fluorescence increase, single-site fit; conditions: 100 mM KCl; 50 mM Tris pH 7.5; slow annealing with ATP 0-10 μM; 0.50 μM aptamer
[9] = tested on: Triplet G (DNA, aptamer) CCTGGGGGGGAGTATTGCGGGAGGGAAGG; assay: HPLC-ESI-MS; conditions: 1 mM KCl, 100 mM TEAAc (annealed in 50 mM KCl)
[10] = tested on: ATP Aptamer (DNA, aptamer) CCTGGGGGAGTATTGCGGAGGAAGG; assay: label-free ThT fluorescence increase, single-site fit; conditions: 100 mM KCl; 50 mM Tris pH 7.5; ThT 0.5 μM present; slow annealing with ATP; apparent
[11] = tested on: Quadruplet G (DNA, aptamer) CCTGGGGGGGGGAGTATTGCGGGGAGGGGAAGG; assay: as above; conditions: 100 mM KCl; 50 mM Tris pH 7.5; ThT 0.5 μM present; slow annealing with ATP; apparent
[12] = tested on: Triplet G (DNA, aptamer) CCTGGGGGGGAGTATTGCGGGAGGGAAGG; assay: as above; conditions: 100 mM KCl; 50 mM Tris pH 7.5; ThT 0.5 μM present; slow annealing with ATP; apparent
[13] = tested on: Quadruplet G (DNA, aptamer) CCTGGGGGGGGGAGTATTGCGGGGAGGGGAAGG; assay: ThT fluorescence light-up; conditions: 100 mM KCl; 50 mM Tris pH 7.5; 3- to 4-fold increase over non-G4 controls
[14] = tested on: ATP Aptamer (DNA, aptamer) CCTGGGGGAGTATTGCGGAGGAAGG; assay: ThT fluorescence light-up; conditions: 100 mM KCl; 50 mM Tris pH 7.5; 3- to 4-fold increase over non-G4 controls
[15] = tested on: Triplet G (DNA, aptamer) CCTGGGGGGGAGTATTGCGGGAGGGAAGG; assay: ThT fluorescence light-up; conditions: 100 mM KCl; 50 mM Tris pH 7.5; 3- to 4-fold increase over non-G4 controls
[16] = 1 mM Tris, G4:ATP 1:5 mixed, also with ThT
[17] = G4:ATP:ThT 1:5:5 mixed, ternary complex with ATP

For Nc1ncnc2c1ncn2[C@@H]1O[C@H](COP(=O)(O)OP(=O)(O)OP(=O)(O)O)[C@@H](O)[C@H]1O, the Kd [1] was 620 nM, the Kd [2] was 42 nM and the binding [3, 16] was “yes”. For the same molecule, the binding [4] was “no”, the Kd [5] was 40 nM and the binding [6, 16] was “yes”. The binding [7] was “no”, the Kd [8] was 150 nM and the binding [9, 16] was “yes”. It also gave a Kd [10] of 830 nM, a Kd [11] of 170 nM and a Kd [12] of 71 nM.

For Cc1ccc2c(c1)sc(-c1ccc(N(C)C)cc1)[n+]2C, the binding [13] was “yes”, the binding [3, 17] was “yes” and the binding [14] was “yes”. For the same molecule, the binding [15] was “yes”, the binding [6, 17] was “yes” and the binding [9, 17] was “yes”.
